Data from the supplement of paper PMC10132981, “Formate overflow drives toxic folate trapping in MTHFD1 inhibited cancer cells” (Nature Metabolism, 2023).

Assays:
SW620 MTHFD2-/- [1] = assay: cell viability relative to vehicle (resazurin, 96 h); higher = more viable; details: base medium: RPMI + dialysed FBS
Experimental: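 SW620 WT or MTHFD2-/- cells were treated for 96 h with a compound dilution series (log10 M) in RPMI with normal or dialysed FBS. Viability was read by resazurin and is given as % of vehicle.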

HCT116 = assay: EC50 for viability (resazurin, 96 h); details: RPMI+GlutaMAX (10% FBS, 1% P/S)
SW620 MTHFD2 -/- = assay: EC50 for viability (resazurin, 96 h); details: RPMI+GlutaMAX (5% dFBS, 1% P/S)
SW620 = assay: EC50 for viability (resazurin, 96 h)
SW620 MTHFD2-/- [2] = assay: EC50 for viability (resazurin, 96 h); details: RPMI+GlutaMAX (5% dFBS, 1% P/S)
SW620 WT = assay: EC50 for viability (resazurin, 96 h); details: RPMI+GlutaMAX (5% dFBS, 1% P/S)

CN(Cc1cnc2nc(N)nc(N)c2n1)c1ccc(C(=O)N[C@@H](CCC(=O)O)C(=O)O)cc1 [methotrexate]
Details | EC50 for viability [nM] | cell viability [%]
HCT116, metabolite supplement: Hypoxanthine | 20.3 | –
HCT116, metabolite supplement: Thymidine | 12.6 | –
SW620 MTHFD2 -/-, metabolite supplement: Hypoxanthine | 16.7 | –
SW620 MTHFD2 -/-, metabolite supplement: Sodium Formate | 10.6 | –
SW620 MTHFD2 -/-, metabolite supplement: Thymidine | 2.67 | –
SW620 MTHFD2 -/-, metabolite supplement: Thymidine + Sodium Formate | 9.38 | –
SW620 MTHFD2 -/-, metabolite supplement: Vehicle | 2.33 | –
SW620 MTHFD2-/- [1], log10 compound concentration (M): -9.33985, supplement / serum: 50 μM Thymidine | – | 87.7
SW620 MTHFD2-/- [1], log10 compound concentration (M): -9.33985, supplement / serum: Hypoxanthine | – | 92.7
SW620 MTHFD2-/- [1], log10 compound concentration (M): -9.33985, supplement / serum: Hypoxanthine+Sodium Formate | – | 96.4
SW620 MTHFD2-/- [1], log10 compound concentration (M): -9.33985, supplement / serum: Hypoxanthine+Sodium Formate+Thymidine | – | 98.6
SW620 MTHFD2-/- [1], log10 compound concentration (M): -9.33985, supplement / serum: No metabolite | – | 82.1
SW620 MTHFD2-/- [1], log10 compound concentration (M): -9.33985, supplement / serum: Sodium Formate | – | 101
SW620 MTHFD2-/- [1], log10 compound concentration (M): -9.33985, supplement / serum: Vehicle | – | 80.1
SW620 MTHFD2-/- [1], log10 compound concentration (M): -9.81697, supplement / serum: 50 μM Hypoxanthine | – | 95.3
SW620 MTHFD2-/- [1], log10 compound concentration (M): -9.81697, supplement / serum: 50 μM Thymidine | – | 109.8
SW620 MTHFD2-/- [1], log10 compound concentration (M): -9.81697, supplement / serum: 50 μM Thymidine + 50 μM Hypoxanthine | – | 104
SW620 MTHFD2-/- [1], log10 compound concentration (M): -9.81697, supplement / serum: Hypoxanthine | – | 102
SW620 MTHFD2-/- [1], log10 compound concentration (M): -9.81697, supplement / serum: Hypoxanthine+Sodium Formate | – | 100
SW620 MTHFD2-/- [1], log10 compound concentration (M): -9.81697, supplement / serum: Hypoxanthine+Sodium Formate+Thymidine | – | 98.5
SW620 MTHFD2-/- [1], log10 compound concentration (M): -9.81697, supplement / serum: No metabolite | – | 97.9
SW620 MTHFD2-/- [1], log10 compound concentration (M): -9.81697, supplement / serum: Sodium Formate | – | 97.9
SW620 MTHFD2-/- [1], log10 compound concentration (M): -9.81697, supplement / serum: Vehicle | – | 94.8
SW620 MTHFD2-/- [1], log10 compound concentration (M): -10.2941, supplement / serum: 50 μM Hypoxanthine | – | 105
SW620 MTHFD2-/- [1], log10 compound concentration (M): -10.2941, supplement / serum: 50 μM Thymidine | – | 93.5
SW620 MTHFD2-/- [1], log10 compound concentration (M): -10.2941, supplement / serum: 50 μM Thymidine + 50 μM Hypoxanthine | – | 103
SW620 MTHFD2-/- [1], log10 compound concentration (M): -10.2941, supplement / serum: Hypoxanthine | – | 91
SW620 MTHFD2-/- [1], log10 compound concentration (M): -10.2941, supplement / serum: Hypoxanthine+Sodium Formate | – | 96.2
SW620 MTHFD2-/- [1], log10 compound concentration (M): -10.2941, supplement / serum: Hypoxanthine+Sodium Formate+Thymidine | – | 100
SW620 MTHFD2-/- [1], log10 compound concentration (M): -10.2941, supplement / serum: No metabolite | – | 94.6
SW620 MTHFD2-/- [1], log10 compound concentration (M): -10.2941, supplement / serum: Sodium Formate | – | 95.9
SW620 MTHFD2-/- [1], log10 compound concentration (M): -10.2941, supplement / serum: Vehicle | – | 87.6
SW620 MTHFD2-/- [1], log10 compound concentration (M): -10.7712, supplement / serum: 50 μM Hypoxanthine | – | 88.2
SW620 MTHFD2-/- [1], log10 compound concentration (M): -10.7712, supplement / serum: 50 μM Thymidine | – | 96.2
SW620 MTHFD2-/- [1], log10 compound concentration (M): -10.7712, supplement / serum: 50 μM Thymidine + 50 μM Hypoxanthine | – | 110
SW620 MTHFD2-/- [1], log10 compound concentration (M): -10.7712, supplement / serum: Hypoxanthine | – | 98.1
SW620 MTHFD2-/- [1], log10 compound concentration (M): -10.7712, supplement / serum: Hypoxanthine+Sodium Formate | – | 92.28
SW620 MTHFD2-/- [1], log10 compound concentration (M): -10.7712, supplement / serum: Hypoxanthine+Sodium Formate+Thymidine | – | 103
SW620 MTHFD2-/- [1], log10 compound concentration (M): -10.7712, supplement / serum: No metabolite | – | 111
SW620 MTHFD2-/- [1], log10 compound concentration (M): -10.7712, supplement / serum: Sodium Formate | – | 95
SW620 MTHFD2-/- [1], log10 compound concentration (M): -10.7712, supplement / serum: Vehicle | – | 95.6
SW620 MTHFD2-/- [2], metabolite supplement: Formate | 2.14 | –
SW620 MTHFD2-/- [2], metabolite supplement: Hypoxanthine | 12 | –
SW620 MTHFD2-/- [2], metabolite supplement: Hypoxanthine + Formate | 12.9 | –
SW620 WT, metabolite supplement: Adenine | 31 | –
SW620 WT, metabolite supplement: Adenosine | 34.5 | –
SW620 WT, metabolite supplement: Guanosine | 19.8 | –
SW620 WT, metabolite supplement: Hypoxanthine | 21.1 | –
SW620 WT, metabolite supplement: Hypoxanthine + AICAr 10 µM | 18.1 | –
SW620 WT, metabolite supplement: Hypoxanthine + AICAr 30 µM | 21.9 | –
SW620 WT, metabolite supplement: Hypoxanthine + AICAr 50 µM | 14.2 | –
SW620 WT, metabolite supplement: Hypoxanthine + AICAr 100 µM | 11.3 | –
SW620 WT, metabolite supplement: Sodium Formate | 6.74 | –
SW620 WT, metabolite supplement: Thymidine | 8.47 | –
SW620 WT, metabolite supplement: Thymidine + Sodium Formate | 6.79 | –
SW620 WT, metabolite supplement: Vehicle | 6.53 | –

SW620
Details | EC50 for viability [nM]
HPLM (5% dFBS, 1% P/S), metabolite supplement: Vehicle | 27
RPMI+GlutaMAX (5% dFBS, 1% P/S), metabolite supplement: 50 µM Hypoxanthine | 21.8
RPMI+GlutaMAX (5% dFBS, 1% P/S), metabolite supplement: Vehicle | 8.7
RPMI+GlutaMAX (10% FBS, 1% P/S), metabolite supplement: Folic acid | 96.3
RPMI+GlutaMAX (10% FBS, 1% P/S), metabolite supplement: Folinic acid | 366
RPMI+GlutaMAX (10% FBS, 1% P/S), metabolite supplement: Hypoxanthine | 26.2
RPMI+GlutaMAX (10% FBS, 1% P/S), metabolite supplement: Thymidine | 12.4
RPMI+GlutaMAX (10% FBS, 1% P/S), metabolite supplement: Thymidine + Folic acid | 81.8
RPMI+GlutaMAX (10% FBS, 1% P/S), metabolite supplement: Thymidine + Folinic acid | 388
RPMI+GlutaMAX (10% FBS, 1% P/S), metabolite supplement: Vehicle | 11.6
